Reference: the supplement of paper PMC10307832

Key:
Assay in all cases: relative viability (nuclei count vs DMSO), 5 days (fraction); higher = more cells survive
[1] = test system: HCC-78
Summary of the method: (§1)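 Relative viability equals treated-well nuclei counts divided by vehicle-well nuclei counts. Counts came from 4× images of lung cancer cell lines grown in 1536-well plates for 5 days after pin-tool dosing on the day after seeding. Dosing used one drug alone or a fixed anchor-drug dose plus five library-drug doses (not always all listed) in √10 steps, and values are medians of duplicate plates.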

[2] = test system: NCI-H661
Summary of the method: as §1

[3] = test system: NCI-H1915
Summary of the method: as §1

[4] = test system: HCC-366
Summary of the method: as §1

[5] = test system: NCI-H1993
Summary of the method: as §1

[6] = test system: LK-2
Summary of the method: as §1

[7] = test system: NCI-H2405
Summary of the method: as §1

[8] = test system: COR-L23
Summary of the method: as §1

[9] = test system: A-427
Summary of the method: as §1

[10] = test system: EMC-BAC-2
Summary of the method: as §1

[11] = test system: NCI-H1563
Summary of the method: as §1

[12] = test system: COR-L 105
Summary of the method: as §1

[13] = test system: BEN
Summary of the method: as §1

[14] = test system: HOP-62
Summary of the method: as §1

[15] = test system: NCI-H1734
Summary of the method: as §1

[16] = test system: SK-MES-1
Summary of the method: as §1

[17] = test system: PC-14
Summary of the method: as §1

[18] = test system: NCI-H460
Summary of the method: as §1

[19] = test system: NCI-H647
Summary of the method: as §1

[20] = test system: 201T
Summary of the method: as §1

[21] = test system: EKVX
Summary of the method: as §1

[22] = test system: HCC-15
Summary of the method: as §1

CCNC(=O)c1noc(-c2cc(C(C)C)c(O)cc2O)c1-c1ccc(CN2CCOCC2)cc1 [Luminespib] + C[C@]1(O)C[C@@H](c2nc(-c3ccc4ccc(-c5ccccc5)nc4c3)c3c(N)nccn32)C1 [Linsitinib] (partner 1 µM)
relative viability ([1]; first compound 0.002 µM): 0.485
relative viability ([1]; first compound 0.06325 µM): 0.76
relative viability ([1]; first compound 0.2 µM): 0.251
relative viability ([2]; first compound 0.002 µM): 0.569
relative viability ([2]; first compound 0.006325 µM): 0.527
relative viability ([2]; first compound 0.02 µM): 0.369
relative viability ([2]; first compound 0.06325 µM): 0.395
relative viability ([2]; first compound 0.2 µM): 0.187
relative viability ([3]; first compound 0.002 µM): 1.12
relative viability ([3]; first compound 0.006325 µM): 1.09
relative viability ([3]; first compound 0.02 µM): 1.02
relative viability ([3]; first compound 0.06325 µM): 1.11
relative viability ([3]; first compound 0.2 µM): 1.05
relative viability ([4]; first compound 0.002 µM): 0.56
relative viability ([4]; first compound 0.006325 µM): 0.696
relative viability ([4]; first compound 0.02 µM): 0.462
relative viability ([4]; first compound 0.06325 µM): 0.0199
relative viability ([4]; first compound 0.2 µM): 0.0167
relative viability ([5]; first compound 0.002 µM): 0.829
relative viability ([5]; first compound 0.006325 µM): 0.735
relative viability ([5]; first compound 0.02 µM): 0.678
relative viability ([5]; first compound 0.06325 µM): 0.534
relative viability ([5]; first compound 0.2 µM): 0.576
relative viability ([6]; first compound 0.002 µM): 0.747
relative viability ([6]; first compound 0.006325 µM): 0.522
relative viability ([6]; first compound 0.02 µM): 0.455
relative viability ([6]; first compound 0.06325 µM): 0.301
relative viability ([6]; first compound 0.2 µM): 0.109
relative viability ([7]; first compound 0.002 µM): 1.01
relative viability ([7]; first compound 0.006325 µM): 0.721
relative viability ([7]; first compound 0.02 µM): 0.613
relative viability ([7]; first compound 0.06325 µM): 0.254
relative viability ([7]; first compound 0.2 µM): 0.182
relative viability ([8]; first compound 0.002 µM): 0.946
relative viability ([8]; first compound 0.006325 µM): 0.811
relative viability ([8]; first compound 0.02 µM): 1.03
relative viability ([8]; first compound 0.06325 µM): 0.0654
relative viability ([8]; first compound 0.2 µM): 0.0696
relative viability ([9]; first compound 0.002 µM): 1.12
relative viability ([9]; first compound 0.006325 µM): 1.09
relative viability ([9]; first compound 0.02 µM): 0.918
relative viability ([9]; first compound 0.06325 µM): 1.12
relative viability ([9]; first compound 0.2 µM): 1.09
relative viability ([10]; first compound 0.002 µM): 0.793
relative viability ([10]; first compound 0.006325 µM): 0.783
relative viability ([10]; first compound 0.02 µM): 0.665
relative viability ([10]; first compound 0.06325 µM): 0.788
relative viability ([10]; first compound 0.2 µM): 0.901
relative viability ([11]; first compound 0.002 µM): 1.34
relative viability ([11]; first compound 0.006325 µM): 1.13
relative viability ([11]; first compound 0.02 µM): 1.11
relative viability ([11]; first compound 0.06325 µM): 0.535
relative viability ([11]; first compound 0.2 µM): 0.542
relative viability ([12]; first compound 0.002 µM): 0.843
relative viability ([12]; first compound 0.006325 µM): 0.811
relative viability ([12]; first compound 0.02 µM): 0.991
relative viability ([12]; first compound 0.06325 µM): 0.245
relative viability ([12]; first compound 0.2 µM): 0.207
relative viability ([13]; first compound 0.002 µM): 0.955
relative viability ([13]; first compound 0.006325 µM): 0.892
relative viability ([13]; first compound 0.02 µM): 0.427
relative viability ([13]; first compound 0.06325 µM): 0.627
relative viability ([13]; first compound 0.2 µM): 0.252
relative viability ([14]; first compound 0.002 µM): 1.07
relative viability ([14]; first compound 0.006325 µM): 0.958
relative viability ([14]; first compound 0.02 µM): 0.945
relative viability ([14]; first compound 0.06325 µM): 1.12
relative viability ([14]; first compound 0.2 µM): 0.934
relative viability ([15]; first compound 0.002 µM): 0.917
relative viability ([15]; first compound 0.006325 µM): 0.792
relative viability ([15]; first compound 0.02 µM): 0.7
relative viability ([15]; first compound 0.06325 µM): 0.258
relative viability ([15]; first compound 0.2 µM): 0.167
relative viability ([16]; first compound 0.002 µM): 1
relative viability ([16]; first compound 0.006325 µM): 0.893
relative viability ([16]; first compound 0.02 µM): 1.13
relative viability ([16]; first compound 0.06325 µM): 0.916
relative viability ([16]; first compound 0.2 µM): 0.164
relative viability ([17]; first compound 0.002 µM): 0.896
relative viability ([17]; first compound 0.006325 µM): 0.897
relative viability ([17]; first compound 0.02 µM): 1.09
relative viability ([17]; first compound 0.06325 µM): 0.936
relative viability ([17]; first compound 0.2 µM): 0.146
relative viability ([18]; first compound 0.002 µM): 0.862
relative viability ([18]; first compound 0.006325 µM): 0.64
relative viability ([18]; first compound 0.02 µM): 0.0374
relative viability ([18]; first compound 0.06325 µM): 0.0101
relative viability ([18]; first compound 0.2 µM): 0.0074
relative viability ([19]; first compound 0.002 µM): 1.23
relative viability ([19]; first compound 0.006325 µM): 1.26
relative viability ([19]; first compound 0.02 µM): 0.914
relative viability ([19]; first compound 0.06325 µM): 0.0924
relative viability ([19]; first compound 0.2 µM): 0.0826
relative viability ([20]; first compound 0.002 µM): 1.03
relative viability ([20]; first compound 0.006325 µM): 0.988
relative viability ([20]; first compound 0.02 µM): 0.872
relative viability ([20]; first compound 0.06325 µM): 1.08
relative viability ([20]; first compound 0.2 µM): 1.01
relative viability ([21]; first compound 0.002 µM): 1
relative viability ([21]; first compound 0.006325 µM): 0.989
relative viability ([21]; first compound 0.02 µM): 0.721
relative viability ([21]; first compound 0.06325 µM): 0.779
relative viability ([21]; first compound 0.2 µM): 0.179
relative viability ([22]; first compound 0.002 µM): 0.837
relative viability ([22]; first compound 0.006325 µM): 0.873
relative viability ([22]; first compound 0.02 µM): 0.929
relative viability ([22]; first compound 0.06325 µM): 0.57
relative viability ([22]; first compound 0.2 µM): 0.519
